Literature values as cited in PMC4261083, “An atypical residue in the pore of Varroa destructor GABA-activated RDL receptors affects picrotoxin block and thymol modulation” (Insect Biochemistry and Molecular Biology, 2014).
pIC50: −log10 of the molar value.

Test system: Tetranychus RDL receptors
Set-up: method as in Asahi et al., 2014
Settings: expressed in Xenopus oocytes, ref Asahi et al., 2014, cited from earlier work

Row | Structure (SMILES) | Sensitivity of Tetranychus RDL receptors to fipronil | pIC50 (read-out: IC50 for block of Tetranychus RDL receptors)
1 | N#Cc1nn(-c2c(Cl)cc(C(F)(F)F)cc2Cl)c(N)c1[S+]([O-])C(F)(F)F (centres unmarked) [fipronil] | resistant | 
2 | Cc1cc(C2=NOC(c3cc(Cl)cc(Cl)c3)(C(F)(F)F)C2)ccc1C(=O)NCC(=O)NCC(F)(F)F (centres unmarked) [fluralaner] |  | ~8.00
